Data published in patent US20090197899A1, “3-(Dihydro-1H-pyrazolo[4,3-d]pyrimidin-5-yl)-4-propoxybenzenesulfonamide Derivatives and Methods of Use” (Concert Pharmaceuticals Inc., priority 2006, published 2009).

Test: Metabolic stability of test compounds using human liver microsomes
Assay type: in vitro ADME
Conditions: for differentiation of t1/2 (longer) as compared to udenafil: human liver microsomes, assay conditions 0.5 mg/mL, 1 µM test compd; for half-life at 1 µM: pooled human liver microsomes, in vitro t1/2, 0.5 mg/mL human liver microsomes, 1 μM test compound, 2 mM NADPH, pH 7.4, 37° C., experiment run an additional three times, read-out: Avg t1/2 (min) ± SD
Protocol: Determination of Metabolic Stability of Test Compounds using Human Liver Microsomes. The metabolic stability of compounds of the invention was tested using pooled liver microsomal incubations. Full scan LC-MS analysis was then performed to detect major metabolites. Samples of the test compounds, exposed to pooled human liver microsomes, were analyzed using HPLC-MS (or MS/MS) detection. For determining metabolic stability, multiple reaction monitoring (MRM) was used to measure the disappearance of the test compounds. For metabolite detection, Q1 full scans were used as survey scans to detect the major metabolites.
Experimental Procedures. Human liver microsomes (“HLM”; 20 mg/mL) were obtained from Xenotech, LLC (Lenexa, Kans.). β-nicotinamide adenine dinucleotide phosphate, reduced form (NADPH), magnesium chloride (MgCl2), and dimethyl sulfoxide (DMSO) were purchased from Sigma-Aldrich.
Stock solutions (7.5 mM) of Compounds 100, 103, 108 and 210 and udenafil were prepared in DMSO. The 7.5 mM stock solutions were diluted to 50 μM in acetonitrile (ACN). The 20 mg/mL human liver microsomes were diluted to 0.625 mg/mL in 0.1 M potassium phosphate buffer, pH 7.4, containing 3 mM MgCl2. The diluted microsomes (375 μL) were added to wells of a 96-well deep-well polypropylene plate in triplicate. Ten μL of the 50 μM test compound solution was added to the microsomes and the mixture was pre-warmed for 10 minutes. Reactions were initiated by addition of 125 μL of pre-warmed NADPH solution (8 mM NADPH in 0.1M potassium phosphate buffer, pH 7.4, containing 3 mM MgCl2). […] The reaction mixtures were incubated at 37° C., and 50 μL aliquots were removed at 0, 5, 10, 20, and 30 minutes and added to shallow-well 96-well plates which contained […] of ice-cold ACN with internal standard to stop the reactions. The plates were stored at 4° C. for 20 minutes after which […] of water was added to the wells of the plate before centrifugation to pellet precipitated proteins. Supernatants were transferred to another 96-well plate and analyzed for amounts of parent remaining by LC-MS/MS using an Applied Bio-systems API 4000 mass spectrometer.
The in vitro t1/2s for test compounds were calculated from the slopes of the linear regression of % parent remaining (ln) vs incubation time relationship using the following formula:
in vitro t1/2=0.693/k, where k=−[slope of linear regression of % parent remaining(ln) vs incubation time]. Data analysis was performed using Microsoft Excel Software.

Compound	differentiation of t1/2 (longer) as compared to udenafil	half-life at 1 µM
[2H]C([2H])(CC1CCCN1C)NS(=O)(=O)c1ccc(OCCC)c(-c2nc3c(CCC)nn(C([2H])([2H])[2H])c3c(=O)[nH]2)c1 (stereo not shown) [Compound 100]	~20%	41.3 ± 1.5 min
[2H]C([2H])(CC1CCCN1C)NS(=O)(=O)c1ccc(OCCC)c(-c2nc3c(CCC)nn(C)c3c(=O)[nH]2)c1 (stereo not shown) [Compound 103]	–	37.2 ± 1.8 min
[2H]C([2H])([2H])n1nc(CCC)c2nc(-c3cc(S(=O)(=O)NCCC4CCCN4C)ccc3OCCC)[nH]c(=O)c21 (stereo not shown) [Compound 108]	–	36.2 ± 1.5 min
[2H]C([2H])(CC1CCCN1C)NS(=O)(=O)c1ccc(OC([2H])([2H])C([2H])([2H])C([2H])([2H])[2H])c(-c2nc3c(CC([2H])([2H])C([2H])([2H])[2H])nn(C([2H])([2H])[2H])c3c(=O)[nH]2)c1 (stereo not shown) [Compound 210, 3-(1-(Methyl-d3)-7-oxo-3-(2,2,3,3,3-d5-propyl)-6,7-dihydro-1H-pyrazolo[4,3-d]pyrimidin-5-yl)-N-(2-(1-methylpyrrolidin-2-yl)-1,1-d2-ethyl)-4-(propoxy-d7)-benzenesulfonamide]	~20%	42.4 ± 3.74 min
CCCOc1ccc(S(=O)(=O)NCCC2CCCN2C)cc1-c1nc2c(CCC)nn(C)c2c(=O)[nH]1 (stereo not shown) [Udenafil, 3-(1-methyl-7-oxo-3-propyl-6,7-dihydro-1H-pyrazolo[4,3-d]pyrimidin-5-yl)-N-[2-(1-methylpyrrolidin-2-yl)ethyl]-4-propoxybenzenesulfonamide, reference compound]	–	33.6 ± 2.2 min
